Test results reported in ChEMBL document CHEMBL3507680, “University of Dundee, Gates Library screen for HepG2 cell viability”.

Assay: Human HepG2 cell viability assay in 384 well format
Assay type: toxicity, cell-based
Set-up: dose 125 nL, time 70.5 hour; concentration not given beside the values
Conditions: HepG2 cells, read-out: Inhibition

First: CCc1nc(C)c(C(=O)NCCNC(=O)c2cccs2)s1
Second: CC(C)Oc1cccc(C(O)CNC(=O)NCc2cccs2)c1 (stereo unspecified)
The cytotoxicity at 70.5 h of the first is higher: 15.7% for the first, 3.68% for the second.

First: CN(Cc1cccs1)C(=O)CN1CCOC(Cn2cncn2)C1 (stereo unspecified)
Second: CC(C)c1noc(CCC(=O)N2CCN(C)CC2c2ccccc2)n1 (stereo unspecified)
The cytotoxicity at 70.5 h of the first is higher: 17.4% for the first, -9.08% for the second.

Compared with O=C(C1CC1)N(CCc1ccccc1)C1CCOC1 (stereo unspecified), COCCC1(C(=O)O)CCCN(CCc2ccccc2)C1 (stereo unspecified) is lower in cytotoxicity at 70.5 h: -6.28% for the first, -7.32% for the second.

Compared with CS(=O)(=O)N1CCC(CNC(=O)C2CCC2)CC1, Cc1ccn(CCNC(=O)C2CCN(S(=O)(=O)c3ccc(F)cc3)C2)n1 (stereo unspecified) is lower in cytotoxicity at 70.5 h: 40.8% for the first, 8.09% for the second.

Compared with Cc1ccc(CN2CC[C@@H](N3CCOCC3)[C@@H]2Cc2cccnc2)o1, Cc1ccc(CN2CCN(C3CCSCC3)CC2CCO)o1 (stereo unspecified) is higher in cytotoxicity at 70.5 h: -6.64% for the first, -0.539% for the second.

Compared with COc1cccc2ncn(C(C)Cn3cccn3)c(=O)c12 (stereo unspecified), CC(NC(=O)c1cnccn1)c1nnc2ccccn12 (stereo unspecified) is lower in cytotoxicity at 70.5 h: -3.99% for the first, -4.81% for the second.

Going from CC(C)c1ncc2c(n1)CN(c1ncnc3[nH]ccc13)CC2 to CC(C)CN1CCn2nc(CNc3ncnc4[nH]ccc34)cc2C1, the cytotoxicity at 70.5 h falls from 17.1% to 7.26%.

First: CCOc1ncccc1C(=O)N1CC=C(c2ccc(O)cc2)CC1
Second: COC(=O)CC1CCN(C(=O)Nc2ccc(-c3ccn[nH]3)cc2)C1 (stereo unspecified)
The cytotoxicity at 70.5 h of the first is lower: -6.39% for the first, 1.65% for the second.

Compared with Cc1ccc(-c2cc(C(=O)NCCN3CCCS3(=O)=O)[nH]n2)o1, COc1ccc(-c2n[nH]c(C)c2CC(=O)NCC2CCCO2)cc1 (stereo unspecified) is higher in cytotoxicity at 70.5 h: -14.9% for the first, 20.6% for the second.

Compared with CSCCC(NC(=O)c1ccc2ccccc2n1)C(=O)N(C)C (stereo unspecified), COC(=O)CN(C(=O)C(C)c1c(F)cccc1F)c1cccc(C)n1 (stereo unspecified) is lower in cytotoxicity at 70.5 h: 18% for the first, -4.95% for the second.

First: O=C(c1cc(Br)c[nH]1)N1CCN(Cc2ccco2)CC1
Second: CN(C)C(C(=O)N1CCN(CC(F)(F)F)CC1)c1ccccc1F (stereo unspecified)
The cytotoxicity at 70.5 h of the first is higher: 5.49% for the first, -1.96% for the second.

First: CN1CCN(C(=O)c2cccn2C)c2ccccc2C1
Second: CN(C)CC1(O)CCCN(C(=O)c2ccccc2-n2cccn2)C1 (stereo unspecified)
The cytotoxicity at 70.5 h of the first is lower: -6.26% for the first, 17.7% for the second.

Going from CC(=O)N1CCC(Oc2ccc(Cl)cc2C(=O)N2CCCO2)CC1 to CC(=O)N1CCC2(CC1)CN(C(=O)[C@@H]1CSCN1)c1ccc(Cl)cc12, the cytotoxicity at 70.5 h rises from -3.91% to 1.24%.

Going from CN(CC(=O)N1CCN(c2ccccc2F)CC1)c1cnccn1 to O=C(CN1CCN(c2ccccc2F)CC1)Nc1ccc(Cl)cn1, the cytotoxicity at 70.5 h rises from -18.2% to 11.6%.

Compared with O=C(Cn1nc(-c2cccs2)ccc1=O)N1CCCCCC1, O=C(c1cccs1)N1CCC2(CC1)CN(c1ccsc1)C(=O)CO2 is higher in cytotoxicity at 70.5 h: -24.9% for the first, -8.69% for the second.

Going from O=S(=O)(c1ccc2c(c1)OCCO2)N1CCC(OCc2ccccn2)C1 (stereo unspecified) to O=C(Cc1ccccn1)N1C[C@@H](Oc2cccnc2)[C@H]2OCCC[C@H]21, the cytotoxicity at 70.5 h rises from -8.08% to 28.2%.

Compared with COc1cc(F)c(CN2CCN(CC(C)C)C(=O)C2C)cc1OC (stereo unspecified), CC(C)Oc1ccc(CN2CCN3CCN(C)CC3C2)cc1CO (stereo unspecified) is lower in cytotoxicity at 70.5 h: -1.44% for the first, -5.57% for the second.

Going from CC(C)CCC(=O)NC(C)c1nnc2n1CCCCC2 (stereo unspecified) to COCC(C)NC(=O)CN1CCCC1 (stereo unspecified), the cytotoxicity at 70.5 h falls from -6.87% to -23.1%.

Going from CCOCc1nc(N2CCCC2)sc1C(=O)NCCC(=O)OCC to CCN(CC)Cc1cc(C(=O)N2CCCC(CC)(C(=O)O)C2)c(C)o1 (stereo unspecified), the cytotoxicity at 70.5 h rises from -6% to -3.17%.

First: Cn1cc(CN2CCC(c3[nH]ncc3S(C)(=O)=O)C2)cn1 (stereo unspecified)
Second: CCO[C@@H]1CCN(c2ccc(C)nn2)[C@@H]1Cc1cnn(C)c1
The cytotoxicity at 70.5 h of the first is higher: -2.27% for the first, -10.9% for the second.

Going from CC(=O)N(Cc1ccsc1)c1ccccc1 to COc1ncccc1C(=O)NCC1Cc2ccccc2O1 (stereo unspecified), the cytotoxicity at 70.5 h rises from -7.44% to -6.43%.

Going from NC(=O)c1cn(CC2CCC2)c(C2CC2)n1 to Nc1ncccc1CN1C[C@@H]2CC[C@H](C1)N(CC1CC1)C2=O, the cytotoxicity at 70.5 h rises from 3.19% to 28%.

Going from COC(=O)[C@@H](NC(=O)c1snnc1-c1ccc(OC)cc1)C(C)C to COc1c(CNCc2ccc(OCC(N)=O)cc2)c(C)nn1C, the cytotoxicity at 70.5 h falls from 11.1% to 7.56%.

Compared with O=S1(=O)C[C@@H]2[C@H](C1)N(Cc1ccoc1)CCN2Cc1ccncc1, c1cc(CO[C@@H]2CN(Cc3ccoc3)[C@@H]3CCCO[C@@H]32)ccn1 is lower in cytotoxicity at 70.5 h: -5.67% for the first, -16% for the second.

Going from O=C1COC2(CCN(c3ccccn3)CC2)CN1Cc1ccccn1 to CC(C)N(C)Cc1cnc2n1CCN(C(=O)Cc1ccccn1)C2, the cytotoxicity at 70.5 h falls from 17.6% to 13.5%.

First: Cn1cncc1CN1CCCC1c1cncc(Oc2ccc(Cl)cc2)n1 (stereo unspecified)
Second: Cc1ccc2nc(C3CCCN3Cc3csc(C)n3)[nH]c2c1 (stereo unspecified)
The cytotoxicity at 70.5 h of the first is higher: 8.74% for the first, -6.25% for the second.

Going from CC(C)(C)CNC1(Cc2cc(C(C)(C)O)on2)COC1 to CCC1C(=O)NCCN1c1ccnc(C(C)(C)C)n1 (stereo unspecified), the cytotoxicity at 70.5 h falls from -7.44% to -23.9%.

First: COc1ncccc1NC(=O)c1[nH]nc(C(C)C)c1Br
Second: COc1cccc(C2CCCN2C(=O)c2cc3c(nc2OC)CCC3)c1 (stereo unspecified)
The cytotoxicity at 70.5 h of the first is lower: -8.6% for the first, -2.74% for the second.

Going from O=C(NCC(O)c1ccccc1C(F)(F)F)c1cccnc1 (stereo unspecified) to O=C1CCN(C(=O)NCc2cccc(Oc3ccccc3)c2)CCN1, the cytotoxicity at 70.5 h rises from -11% to -6.34%.

Compared with CC(C)NC(=O)CS(=O)(=O)c1cc2c(cc1Cl)OCCO2, Cc1cnc(N2CCC3(CCC(C(=O)NC(C)C)OC3)CC2)nc1 (stereo unspecified) is higher in cytotoxicity at 70.5 h: -3.28% for the first, -2.25% for the second.

Compared with CC(C)=CCN1CCN(C(=O)c2cc(C(C)C)no2)[C@H]2CS(=O)(=O)C[C@H]21, CC(C)c1cc(C(=O)N2C[C@H]3CC[C@@H]2CN(Cc2cscn2)C3)no1 is higher in cytotoxicity at 70.5 h: -8.12% for the first, 15.2% for the second.

Compared with O=C(Nc1cc(F)ccc1OCC1CCCO1)NC1CC1 (stereo unspecified), Cc1cccc(NC2CCN(C(=O)Nc3ccc(F)cc3C)CC2)n1 is higher in cytotoxicity at 70.5 h: -8.4% for the first, -5.61% for the second.

First: COCCN1CCN(Cc2ccc(OCc3nccn3C)cc2)CC1
Second: Cn1ccnc1-c1nccn1-c1cccc(CN2CCCC2)c1
The cytotoxicity at 70.5 h of the first is lower: -14.3% for the first, 2.21% for the second.

First: COC(=O)C(CNC(=O)Nc1nncs1)Cc1cccc(C)c1 (stereo unspecified)
Second: Cc1noc(C)c1CCCNC(=O)Nc1cccc([S+](C)[O-])c1 (stereo unspecified)
The cytotoxicity at 70.5 h of the first is higher: -3.4% for the first, -3.63% for the second.

Going from Cc1noc(C)c1-c1nc(C2CCCN(CCC(N)=O)C2)ccc1CO (stereo unspecified) to C=Cc1cccc(CN2C[C@H]3CC[C@@H]2CN(Cc2c(C)noc2C)C3)c1, the cytotoxicity at 70.5 h rises from -6.81% to -0.99%.

Going from O=C(NCc1ccco1)[C@@]12CCO[C@@H]1CCN(C1CCC1)C2 to CN(C)C(=O)NCC(=O)N1CCCC2(CCC(=O)N(CC3CC3)C2)C1 (stereo unspecified), the cytotoxicity at 70.5 h falls from 2.1% to -13.6%.

Going from CCS(=O)(=O)N1C[C@@H](O)[C@H](Oc2cccc(F)c2)C1 to O=C(O)[C@H]1OCC(=O)N(Cc2cccc(F)c2)[C@@H]1c1ccc(Cl)cc1, the cytotoxicity at 70.5 h rises from -9.71% to -9.16%.

Compared with Cn1ccnc1CCNS(=O)(=O)Cc1cccc(C#N)c1, CC(C)(NCCCOc1ccc(C#N)cc1)c1nccs1 is higher in cytotoxicity at 70.5 h: -8.33% for the first, -1.99% for the second.

Compared with Cn1cnc(S(=O)(=O)N2C[C@@H]3CC[C@H](C2)N(Cc2cscn2)C3=O)c1, Cc1nccc(N[C@H]2CN(CCC(=O)NC3CCCC3)C[C@@H]2C2CC2)n1 is higher in cytotoxicity at 70.5 h: -6.52% for the first, -2.83% for the second.

First: Cc1ccc2c(c1)C1(CCNCC1)CC2NC1CC1 (stereo unspecified)
Second: Cc1cnc(N2CCC3(CCCN(c4ccc(C)nn4)C3)C2)nc1 (stereo unspecified)
The cytotoxicity at 70.5 h of the first is lower: 2.66% for the first, 14.4% for the second.

Going from O[C@@]1(c2ccccn2)CC[C@H]2CN(Cc3cccc(Cl)c3Cl)C[C@H]21 to CCCN1C[C@H]2CC[C@@H]1CN(Cc1ccc(-n3cccn3)cc1)C2, the cytotoxicity at 70.5 h rises from -10.2% to 23.7%.

Going from COc1ccc(C(=O)N2C[C@@H](C(=O)O)[C@H](c3ccccc3C)C2)c(O)c1 to COc1nc(C)c(C(=O)N2CCC(C(O)Cc3ccccc3)CC2)s1 (stereo unspecified), the cytotoxicity at 70.5 h falls from -6.81% to -11.5%.

Going from C=C1c2ccccc2C(=O)N1CCC(=O)N1CCNC(=O)C1 to Cc1cc(=O)[nH]c(=O)n1Cc1ncc(-c2ccccc2C(=O)O)s1, the cytotoxicity at 70.5 h falls from 3.89% to -0.441%.

Compared with CNc1cccc(CC2COCCN(C(=O)c3cnn(C)c3)C2)n1 (stereo unspecified), CN(C)CC1CCCCN1C(=O)c1ccc(N2CCOCC2)cc1 (stereo unspecified) is higher in cytotoxicity at 70.5 h: -0.46% for the first, 0.118% for the second.

Going from Cc1nc2c(c(=O)[nH]1)CN(Cc1ccc3c(c1)CCCN3C)CC2 to CCn1nc2c(cc1=O)CN(CC(=O)Nc1nnc(C)s1)CC2, the cytotoxicity at 70.5 h falls from 1.02% to -15%.

Compared with Cc1noc(C)c1CN(C)C(=O)C1CCCc2ccccc21 (stereo unspecified), Cc1nnc(C2CCN(C(=O)c3cnc4ccccc4n3)CC2)s1 is lower in cytotoxicity at 70.5 h: -0.492% for the first, -2.76% for the second.

First: N#Cc1cc(C#N)c(SCC(=O)Nc2ccc(F)cc2)nc1N
Second: Cc1cc2n(n1)CC(CNCCNC(=O)c1ccc(F)cc1)CN2 (stereo unspecified)
The cytotoxicity at 70.5 h of the first is higher: 5.41% for the first, -4.35% for the second.

First: O=C(c1ccc(-n2cnnc2)nc1)N1CCCC(O)(CO)CC1 (stereo unspecified)
Second: COCCN(C)C[C@@H]1CN(C(=O)c2ccc(O)c(Cl)c2)C[C@@H]1CO
The cytotoxicity at 70.5 h of the first is lower: -22.7% for the first, -4.52% for the second.

Compared with CC(=O)NCCC(=O)Nc1cccc(N2CCN(CC3CC3)CC2)c1, CCc1ccc(CNc2ccccc2CN2CCC(O)CC2)o1 is lower in cytotoxicity at 70.5 h: -0.54% for the first, -9.23% for the second.

First: O=C([C@@H]1COC[C@H]2CN(CC3CCCC3)C[C@H]21)N1CCOCC1
Second: Cc1nnc([C@@H]2CC[C@@H]3[C@@H](CCN3CC3CCOCC3)O2)o1
The cytotoxicity at 70.5 h of the first is lower: -7.37% for the first, -1.38% for the second.

First: Cc1c(NCc2ccc(C#N)cc2)cccc1S(=O)(=O)NC1CC1
Second: Cn1ncnc1-c1ccnc(NCc2ccncc2)n1
The cytotoxicity at 70.5 h of the first is higher: 1.12% for the first, -13.8% for the second.

First: CC(=O)Nc1ccc(/C=C/c2ncc(C(=O)O)s2)cc1
Second: Cc1ccc(C(C)(C)CNC(=O)NC(C)Cn2cncn2)cc1 (stereo unspecified)
The cytotoxicity at 70.5 h of the first is lower: -1.46% for the first, -0.962% for the second.

First: COCCN(Cc1cnn(C)c1)CC1CCN(C(C)C)CC1
Second: COCCNC(=O)[C@H]1CC[C@@H]2[C@@H](CCN2c2ncc(F)cn2)O1
The cytotoxicity at 70.5 h of the first is lower: -1.39% for the first, -1.33% for the second.

Going from CCn1cncc1CN(Cc1ccc(OC)cc1OC)CC1CCCO1 (stereo unspecified) to CCc1ccc(C2c3nc[nH]c3CCN2Cc2nccn2CC)nc1 (stereo unspecified), the cytotoxicity at 70.5 h rises from -3.49% to 33.1%.

Going from O=C(NCCNc1ccccn1)NC1CCCC1 to CNc1ncc(CN2CCCC2c2[nH]ncc2C(=O)N(C)C)cn1 (stereo unspecified), the cytotoxicity at 70.5 h rises from -4.33% to -3.21%.

Cc1cnn(CCNC(C)c2nnc(-c3cccc(Cl)c3)o2)c1 (stereo unspecified) gave a cytotoxicity at 70.5 h of -6.22%.
